Test [1] can be described thus: TEAC model (Trolox equivalent antioxidant capacity). The settings on record: concentration of Trolox equivalent to 1 mM test compound; mean ± S.D., n = 3-5. As to the method: A solution of 2,2′-azino-bis(3-ethylbenzthiazoline-6-sulfonic acid) (1.23 mg/mL) and azobisamidinepropane (3.96 mg/mL) in 50 mM phosphate buffer (pH=7.4) was heated at 70° C. for 20 min. The amount of ABTS radicals was measured by determination of the absorbance at 734 nm.
Stock solutions of the flavonoids were freshly prepared in nitrogen-purged DMSO and nanopure water (1:1) just before use. A calibration curve of Trolox ((+/−)-6-hydroxy-2,5,7,8-tetramethyl-chroman-2-carboxylic acid) was made in a concentration range from 0 to 20 μM. A mixture of 50 μL test compound and 950 μL ABTS^−+ solution was incubated at 37° C. for 5 min. Subsequently the absorbance at 734 nm was determined on a UV/VIS Spectrophotometer.
The antioxidant-induced decrease in absorbance is directly related to the antioxidant capacity of the compound (solution) being tested.
The Trolox equivalent antioxidant capacity (TEAC) is defined as the concentration (mM) of Trolox having an antioxidant capacity equivalent to 1 mM of the test compound.

The test system of test [2] is iron/ascorbate induced lipid peroxidation. The experiment in a line: Lipid peroxidation (LPO) model, heat-treated hepatic microsomes, TBA reactive substances. The conditions noted are these: rat hepatic microsomes, reaction started with 10 uM FeSO4; mean ± s.e.m., n = 3-5. The test is classed as biochemical. How it is done:
Experiment 1: Lipid Peroxidation Model
Preparation of hepatic microsomes.
Male Wistar rats (200-220 g) obtained from Harlan Nederland B.V. (Horst, The Netherlands) were sacrificed by decapitation. Livers were removed and homogenized in ice-cold phosphate buffer (50 mM+0.1 mM EDTA, pH=7.4, 1:2 w/v). The homogenate was centrifuged at 10 000× g (20 min at 4° C.). Subsequently, the supernatant was centrifuged at 100 000× g for 60 min (4° C.). The pellet was resuspended in phosphate buffer and centrifuged again at 100 000× g (60 min, 4° C.). Finally the microsomal pellet was resuspended in phosphate buffer (2 g liver/ml) and 1 mL aliquots were stored at −80° C.
Microsomes were thawed and resuspended in ice-cold Tris-HCl buffer (50 mM, pH=7.4 at 37° C.) and washed by centrifugation. The pellet was resuspended in 2 mL 50 mM Tris-HCl buffer and heated to 100° C. for at least 2 min to remove all enzymatic factors just before resuspending and diluting it in ice-cold Tris buffer to 1.5 mg/mL.
Stock solutions of the flavonoids were freshly prepared in nitrogen-purged DMSO and nanopure water (1:1) just before use. The reaction was started by adding 10 uM freshly prepared FeSO4 in nitrogen-purged nanopure water. LPO was assayed by measuring thiobarbituric acid (TBA) reactive substances. At t=0, 5, 10, 15, 30, 45 and 60 min an 0.3 mL aliquot of the incubation was mixed with 2 mL of an ice-cold TBA-trichloroacetic acid-HCl-butylhydroxytoluene (BHT) solution to stop the reaction. After heating and centrifugation the absorbance at 535 vs 600 nm was determined. The TBA-trichloroacetic acid-HCl-butylhydroxytoluene solution was prepared by dissolving 41.6 mg TBA/10 ml trichloroacetic acid (16.8% w/v in 0.125 N HCl). To 10 ml TBA-trichloroacetic acid-HCl 1 ml BHT (1.5 mg/ml ethanol) was added.
The IC50 was determined by measuring the % LPO inhibition at several concentrations and interpolating the 50% inhibition point.

Test [3] has as its system isolated mouse left atrium. The experiment in a line: Isolated mouse left atrium model: protection against doxorubicin-induced negative inotropy. Further details: key: NP: No protection. The conditions noted are these: 250 μM flavonoid with 35 μM doxorubicin, electrically paced mouse left atrium. How it is done: Experiment 3: Isolated Mouse Left Atrium Model
In order to determine the cardioprotective properties of the compounds in vitro, the protection against doxorubicin-induced negative inotropy was studied, using the isolated mouse left atrium model.
The example compounds were tested for their protective effect on the negative inotropic action of doxorubicin on the isolated mouse left atrium. The testing model has been described earlier (de Jong et al.Ress Comm Chem Pathol Pharmacol 68, 275-289 (1990). In short, left atria were isolated from male Balb/c mice (18-22 g) and stimulated with square wave pulses of 3 ms duration at a frequency of 4 Hz. Incubation with […] doxorubicin causes a decrease in inotropy of 50% (after 1 h). Atria were incubated with 35 μM doxorubicin and 250 μM flavonoid. Inotropy was measured and expressed as % basal contractile force relative to t=0.

Data on 17 compounds can be found in US20020147353A1, “Novel flavonoids” (Vereniging christelijk wetenschappelijk anderwijs, priority 1999, published 2002).

For `O=c1cc(-c2ccc(O)c(O)c2)oc2cc(O)ccc12` [Compound 8a, 3′,4′,7-trihydroxyflavone], in test [1], the TEAC was 4.3 ± 0.2 mM. Besides, the midpoint of inhibition in test [2], the IC50, lay at 11 ± 1.3 µM.

Consider `O=c1cc(-c2ccc(O)c(O)c2)oc2cc(OCCO)ccc12` [Compound 8c, 3′,4′-dihydroxy-7-hydroxyethoxyflavone], for which, in test [1], the TEAC is given as 4.3 ± 0.7 mM. In test [2], this compound showed an IC50 of 16.4 ± 1.7 µM.

With `C[N+](C)(C)CCCOc1ccc2c(=O)cc(-c3ccc(O)c(O)c3)oc2c1` [Compound 8d, 3′4′-dihydroxy-7-(3-trimethylaminopropoxy)flavone], the TEAC in test [1] is recorded as 1.9 ± 0.3 mM. Besides, in test [2], inhibition was half-maximal at 37.3 ± 2.4 µM (IC50).

As to `CN(C)CCCOc1ccc2c(=O)cc(-c3ccc(O)c(O)c3)oc2c1` [Compound 8e, 3′,4′-dihydroxy-7-(3-dimethylaminopropoxy)flavone], the TEAC in test [1] is reported as 2.9 ± 0.4 mM. Moreover, the IC50 in test [2] amounted to 8.1 ± 1.1 µM.

Turning to `O=C(O)COc1c(-c2ccc(O)c(O)c2)oc2ccccc2c1=O` [Compound 9d, 3′4′-dihydroxy-3-(2-ethoxycarboxylic acid)flavone], in test [1], the TEAC turned out to be 7.6 ± 0.6 mM. In addition, the “Atrium protection (250 μM)” value in test [3] was “NP”. In test [2], this compound registered a 50% inhibitory concentration (IC50) of 6.5 ± 1 µM.

In the case of `CN(C)CCCOc1c(-c2ccc(O)c(O)c2)oc2ccccc2c1=O` [Compound 9e, 3′,4′-dihydroxy-3-(3-dimethylaminopropoxy)flavone], the TEAC in test [1] is given as 3.4 ± 0.4 mM. Further, the “Atrium protection (250 μM)” value in test [3] is reported as “NP”. The IC50 in test [2] is 1 ± 0.1 µM.

Consider `C[N+](C)(C)CCCOc1c(-c2ccc(O)c(O)c2)oc2ccccc2c1=O` [Compound 9f, 3′4′-dihydroxy-3-(3-trimethylaminopropoxy)flavone], for which the TEAC in test [1] is 4.2 ± 0.2 mM. The “Atrium protection (250 μM)” value in test [3] is “NP”. Also, 1.2 ± 0.3 µM corresponded to half-maximal inhibition in test [2] (IC50).

In the case of `C[N+](C)(C)CCCCCCOc1c(-c2ccc(O)c(O)c2)oc2ccccc2c1=O` [Compound 9g, 3′4′-dihydroxy-3-(6-trimethylaminohexyloxy)flavone], the TEAC in test [1] turned out to be 4.3 ± 0.6 mM. In test [3], the “Atrium protection (250 μM)” value is listed as “NP”. In test [2], this compound yielded an IC50 of 1.4 ± 0.3 µM.

For the compound `C[N+](C)(C)CCCCCCCCOc1c(-c2ccc(O)c(O)c2)oc2ccccc2c1=O` [Compound 9h, 3′4′-dihydroxy-3-(8-trimethylaminooctyloxy)flavone], in test [1], the TEAC came out at 3.3 ± 0.6 mM. For the same compound, the “Atrium protection (250 μM)” value in test [3] is listed as “NP”. Moreover, 1 ± 0.3 µM corresponded to half-maximal inhibition in test [2] (IC50).

Take `C[C@@H]1O[C@@H](OC[C@H]2O[C@@H](Oc3c(-c4ccc(O)c(O)c4)oc4ccccc4c3=O)[C@H](O)[C@@H](O)[C@@H]2O)[C@H](O)[C@H](O)[C@H]1O` [Compound 9j, 3′,4′-dihydroxy-3-rutinoseflavone]: the TEAC in test [1] is given as 4.3 ± 0.3 mM. In addition, the “Atrium protection (250 μM)” value in test [3] is reported as “NP”. Besides, in test [2], inhibition was half-maximal at 15.7 ± 4.8 µM (IC50).

In the case of `O=c1c(OCCO)c(-c2ccc(O)c(O)c2)oc2cc(O)ccc12` [Compound 10c, 3-hydroxyethoxy-7,3′,4′-trihydroxyflavone], the TEAC in test [1] was 3.4 ± 0.2 mM. Further, the “Atrium protection (250 μM)” value in test [3] was determined as 13%. Further, half-maximal inhibition in test [2] (IC50) was put at 21.7 ± 6.1 µM.

Consider `O=c1c(O)c(-c2ccccc2)oc2cc(O)cc(O)c12` [Galangin, reference compound], for which the IC50 in test [2] came out at 6 µM.

In test [2], `O=c1c(O)c(-c2ccc(O)cc2)oc2cc(O)cc(O)c12` [Kaempferol, reference compound] came in with an IC50 of 6 µM.

In test [2], `O=c1cc(-c2ccc(O)c(O)c2)oc2cc(O)cc(O)c12` [Lutcolin, reference compound] showed an IC50 of 17 µM.

`O=c1c(O)c(-c2cc(O)c(O)c(O)c2)oc2cc(O)cc(O)c12` [Myricetin, reference compound] returned an IC50 in test [2] of 10 µM.

In turn, `C[C@@H]1O[C@@H](OC[C@H]2O[C@@H](Oc3c(-c4ccc(O)c(O)c4)oc4cc(O)cc(O)c4c3=O)[C@H](O)[C@@H](O)[C@@H]2O)[C@H](O)[C@H](O)[C@H]1O` [Rutin, reference compound] had an IC50 in test [2] of 10 µM.

Fisetin [reference compound]: the IC50 in test [2] worked out at 16 µM.
